Usually Kd stands for the concentration at which binding is half-saturated. Low readings indicate tighter binding, high ones weaker binding.

This is an account of results in paper PMC11660126, “Demethylzeylasteral inhibits oxidative phosphorylation complex biogenesis by targeting LRPPRC in lung cancer” (Journal of Cancer, 2025).

The target in the assay is T1, LRPPRC (Leucine-rich pentatricopeptide repeat-containing protein) (Homo sapiens, UniProt P42704).
T1 construct: GST fusion)
The assay is described as follows: Intrinsic fluorescence quenching titration of purified LRPPRCΔ[…]; confirmed by BLI (KD […]) and CETSA in A549 and H1299 cells. It counts as binding.

T1 sequence (P42704 1121-1394): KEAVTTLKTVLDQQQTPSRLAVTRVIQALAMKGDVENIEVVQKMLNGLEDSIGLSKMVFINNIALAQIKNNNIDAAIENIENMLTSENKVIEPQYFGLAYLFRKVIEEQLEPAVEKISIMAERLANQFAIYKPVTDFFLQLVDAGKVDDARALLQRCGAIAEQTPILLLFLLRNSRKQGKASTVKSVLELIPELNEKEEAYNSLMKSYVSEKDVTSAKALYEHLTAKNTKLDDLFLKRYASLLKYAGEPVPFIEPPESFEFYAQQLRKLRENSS

`C[C@@]1(C(=O)O)CC[C@]2(C)CC[C@]3(C)C4=CC(=O)c5c(cc(O)c(O)c5C=O)[C@]4(C)CC[C@@]3(C)[C@@H]2C1` [T-96, Demethylzeylasteral] displayed a Kd of 21.4 µM.
